Experimental data taken from patent US8188135B2, “Compounds as cannabinoid receptor ligands” (priority 2008, dated 2012).

Key:
[1] = target: T1, rat CB2 (Rattus norvegicus, UniProt Q9QZN9); experiment: rat CB2 radioligand binding assay ([3H]CP 55,940 competition); design: expressed in transfected cells; host or cells: HEK293; settings: rat CB2 (Ki, nM), HEK293 membranes, 0.5 nM [3H]CP 55,940
T1 sequence (Q9QZN9 1-360): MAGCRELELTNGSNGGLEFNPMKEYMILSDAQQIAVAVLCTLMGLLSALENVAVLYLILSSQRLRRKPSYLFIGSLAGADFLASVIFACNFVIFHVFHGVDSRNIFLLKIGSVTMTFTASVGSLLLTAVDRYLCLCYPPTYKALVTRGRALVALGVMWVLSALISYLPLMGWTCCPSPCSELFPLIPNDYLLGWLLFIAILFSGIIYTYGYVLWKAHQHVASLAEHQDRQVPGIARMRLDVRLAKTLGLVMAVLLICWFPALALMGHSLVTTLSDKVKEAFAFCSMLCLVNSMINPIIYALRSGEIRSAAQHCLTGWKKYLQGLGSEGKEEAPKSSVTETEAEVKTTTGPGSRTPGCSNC
Summary of the method: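 Membranes (20 μg protein/well) from HEK293 cells stably expressing the receptor were incubated 45 min at 30 °C with 0.5 nM [3H]CP 55,940 and five concentrations of test compound (0.01 nM–10 μM) in Tris/EDTA/MgCl2/BSA buffer, pH 7.4. Bound ligand was measured by GF/C filtration and scintillation counting; 10 μM CP 55,940 defined nonspecific binding.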

[2] = target: T2, Rat CB1 (Rattus norvegicus, UniProt P20272); experiment: rat CB1 cyclase functional assay (HitHunter cAMP); type: cell-based; settings: Rat CB1 cyclase (EC50, nM), HEK cells, forskolin 37 μM
T2 construct: expressed in transfected cells; host or cells: HEK
T2 sequence (P20272 whole entry): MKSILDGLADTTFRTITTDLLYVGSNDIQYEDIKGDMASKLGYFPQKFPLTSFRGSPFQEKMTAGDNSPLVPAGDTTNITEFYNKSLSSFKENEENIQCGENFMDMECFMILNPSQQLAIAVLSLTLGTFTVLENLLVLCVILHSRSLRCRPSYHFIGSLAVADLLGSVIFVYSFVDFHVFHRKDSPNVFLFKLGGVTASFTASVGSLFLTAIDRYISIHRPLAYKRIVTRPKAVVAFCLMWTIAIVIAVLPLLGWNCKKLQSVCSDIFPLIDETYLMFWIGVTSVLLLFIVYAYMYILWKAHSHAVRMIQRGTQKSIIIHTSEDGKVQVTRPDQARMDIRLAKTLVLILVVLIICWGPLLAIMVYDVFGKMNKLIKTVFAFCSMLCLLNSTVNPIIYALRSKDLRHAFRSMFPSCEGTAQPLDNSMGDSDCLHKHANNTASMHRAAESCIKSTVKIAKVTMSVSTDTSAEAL
Summary of the method: (§1)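 HEK cells expressing rat CB1 or CB2, 10,000 cells/well, incubated 20 min at 37° C with test ligands plus forskolin (37 μM for CB1, 18 μM for CB2) in DPBS with 0.01% BSA. cAMP read by enzyme-complementation luminescence after lysis; EC50 from sigmoidal dose-response fit.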

[3] = pharmacokinetic studies in rats; settings: male, Sprague-Dawley, rat, in vivo; for clearance / half-life: iv, 3 micromole/kg; for bioavailability: po, 10 micromole/kg
Method: Male Sprague-Dawley rats, weighing 250-400 g, were obtained from Charles Rivers Laboratories. Pharmacokinetic studies were conducted in three groups of rats; each group contained three animals. All groups were dosed with a solution formulation. The first group of three rats received an intravenous dose, administered under isoflurane anesthetic. The second group received an intraperitoneal dose and the third group received an oral dose, administered by gavage. Sequential blood samples were obtained from a tail vein of each animal for 8-24 hours after dosing. Plasma was separated by centrifugation and stored frozen until analysis.
Half life […] and plasma clearance values are based on intravenous administration (3 micromole/kg).
Half life (t1/2) and plasma clearance values are based on intravenous administration (3 micromole/kg).

[4] = target: T3, human CB2 receptors (Homo sapiens, UniProt P34972); experiment: human CB2 radioligand binding assay ([3H]CP 55,940 competition); settings: human CB2 (Ki, nM), HEK293 membranes, 0.5 nM [3H]CP 55,940
T3 construct: expressed in transfected cells; host or cells: HEK293
T3 sequence (P34972 whole entry): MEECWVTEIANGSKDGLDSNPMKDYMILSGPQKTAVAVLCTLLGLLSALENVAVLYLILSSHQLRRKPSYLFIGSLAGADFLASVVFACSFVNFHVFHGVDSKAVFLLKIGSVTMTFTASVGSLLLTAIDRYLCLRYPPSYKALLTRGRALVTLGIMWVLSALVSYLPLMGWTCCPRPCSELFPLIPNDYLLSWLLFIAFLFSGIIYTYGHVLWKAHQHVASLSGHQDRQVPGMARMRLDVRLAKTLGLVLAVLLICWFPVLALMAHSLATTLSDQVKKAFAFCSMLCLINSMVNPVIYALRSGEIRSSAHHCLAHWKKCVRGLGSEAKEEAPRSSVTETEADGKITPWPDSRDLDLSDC
Summary of the method: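 Membranes from HEK293 cells stably expressing human CB2 (5 μg protein/well) competed against 0.5 nM [3H]CP 55,940 with five concentrations of test ligand (0.01 nM to 10 μM), pH 7.4 Tris buffer with BSA, 90 min at 30 °C. Filtration and scintillation counting; nonspecific binding with 10 μM unlabeled CP 55,940.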

[5] = target: T1, rat CB2; experiment: rat CB2 cyclase functional assay (HitHunter cAMP); type: cell-based; design: expressed in transfected cells; host or cells: HEK; settings: rat CB2 cyclase (EC50, nM), HEK cells, forskolin 18 μM
Summary of the method: as §1

SMILES | Ki [1] [nM] | EC50 [2] [nM] | clearance [3] [mL/min/kg] | half-life [3] [h] | bioavailability [3] [%] | Ki [4] [nM] | EC50 [5] [nM]
Cn1c(C(C)(C)C)c/c(=N\C(=O)c2cc(C#N)ccc2OCC(C)(C)O)n1CC1CCCC1 [Example 127, N-[(3E)-5-tert-butyl-2-(cyclopentylmethyl)-1-methyl-1,2-dihydro-3H-pyrazol-3-ylidene]-5-cyano-2-(2-hydroxy-2-methylpropoxy)benzamide] | 12 | > 27000 | 46.7 | 0.8 | 60 | 47 | 1.78
Cn1c(C2(C)CC2)c/c(=N\C(=O)c2cc(C(F)(F)F)ccc2OCC(C)(C)O)n1C[C@H]1CCCO1 [Example 70, 2-(2-hydroxy-2-methylpropoxy)-N-{(3E)-1-methyl-5-(1-methylcyclopropyl)-2-[(2 R)-tetrahydrofuran-2-ylmethyl]-1,2-dihydro-3H-pyrazol-3-ylidene}-5-(trifluoromethyl)benzamide] | 4.4 | > 27000 | 30 | 2.3 | 46 | 27 | 0.47
Cn1c(C(C)(C)C)c/c(=N\C(=O)c2cc(C(F)(F)F)ccc2OCC(C)(C)O)n1CC1CCC1 [Example 86, N-[(3E)-5-tert-butyl-2-(cyclobutylmethyl)-1-methyl-1,2-dihydro-3H-pyrazol-3-ylidene]-2-(2-hydroxy-2-methylpropoxy)-5-(trifluoromethyl)benzamide] | 4.3 | 4020 | 5 | 5.4 | 50 | 8.3 | 0.23
Cn1c(C(C)(C)C)c/c(=N\C(=O)c2cc(Cl)ccc2OCC(C)(C)O)n1C[C@H]1CCCO1 [Example 89, N-{(3E)-5-tert-butyl-1-methyl-2-[(2R)-tetrahydrofuran-2-ylmethyl]-1,2-dihydro-3 H-pyrazol-3-ylidene}-5-chloro-2-(2-hydroxy-2-methylpropoxy)benzamide] | 7.6 | 2320 | 16.7 | 1.6 | 37 | 19 | 0.61
CCCCn1/c(=N/C(=O)c2cc(C(F)(F)F)ccc2OCC(C)(C)O)cc(C(C)(C)C)n1C [Example 81, N-[(3E)-2-butyl-5-tert-butyl-1-methyl-1,2-dihydro-3H-pyrazol-3-ylidene]-2-(2-hydroxy-2-methylpropoxy)-5-(trifluoromethyl)benzamide] | 25 | 3360 | 3.33 | 5 | 61 | 44 | 0.5
Cn1c(C(C)(C)C)c/c(=N\C(=O)c2cc(C(F)(F)F)ccc2OCCC(C)(C)O)n1C[C@H]1CCCO1 [Example 20, N-{(3E)-5-tert-butyl-1-methyl-2-[(2R)-tetrahydrofuran-2-ylmethyl]-1,2-dihydro-3H-pyrazol-3-ylidene}-2-(3-hydroxy-3-methylbutoxy)-5-(trifluoromethyl)benzamide] | 11 | 6850 | 13.3 | 3.9 | 27 | 35 | 0.57
Cn1c(C(C)(C)C)c/c(=N\C(=O)c2cc(C(F)(F)F)ccc2OCCC(C)(C)O)n1CC1CC1 [Example 51, N-[(3E)-5-tert-butyl-2-(cyclopropylmethyl)-1-methyl-1,2-dihydro-3H-pyrazol-3-ylidene]-2-(3-hydroxy-3-methylbutoxy)-5-(trifluoromethyl)benzamide] | 15 | > 27000 | 8.33 | 3.2 | 52 | 80 | 0.46
Cn1c(C(C)(C)C)c/c(=N\C(=O)c2cc(C(F)(F)F)ccc2OCC(C)(C)O)n1C[C@H]1CCCO1 [Example 5, N-{(3E)-5-tert-butyl-1-methyl-2-[(2R)-tetrahydrofuran-2-ylmethyl]-1,2-dihydro-3H-pyrazol-3-ylidene}-2-(2-hydroxy-2-methylpropoxy)-5-(trifluoromethyl)benzamide] | 5.5 | 7690 | 18.3 | 2.1 | 37 | 10 | 0.22
Cn1c(C(C)(C)C)c/c(=N\C(=O)c2cc(C#N)ccc2OCC(C)(C)O)n1C[C@H]1CCCO1 [Example 90, N-{(3E)-5-tert-butyl-1-methyl-2-[(2R)-tetrahydrofuran-2-ylmethyl]-1,2-dihydro-3 H-pyrazol-3-ylidene}-5-cyano-2-(2-hydroxy-2-methylpropoxy)benzamide] | 11 | > 27000 | 41.7 | 2.1 | 28 | 41 | 1.8
Cn1c(C2(C)CC2)c/c(=N\C(=O)c2cc(C(F)(F)F)ccc2OCCC(C)(C)O)n1C[C@H]1CCCO1 [Example 68, 2-(3-hydroxy-3-methylbutoxy)-N-{(3E)-1-methyl-5-(1-methylcyclopropyl)-2-[(2 R)-tetrahydrofuran-2-ylmethyl]-1,2-dihydro-3H-pyrazol-3-ylidene}-5-(trifluoromethyl)benzamide] | 13 | > 27000 | 40 | 2.2 | 25 | 77 | 0.2
Cn1c(C(C)(C)C)c/c(=N\C(=O)c2cc(C(F)(F)F)ccc2OCC(C)(C)O)n1CCC(F)(F)F [Example 87, N-[(3E)-5-tert-butyl-1-methyl-2-(3,3,3-trifluoropropyl)-1,2-dihydro-3H-pyrazol-3-ylidene]-2-(2-hydroxy-2-methylpropoxy)-5-(trifluoromethyl)benzamide] | 7.6 | 3110 | 5 | 3.2 | 64 | 18 | 0.25
